# Assay results from PubChem BioAssay AID1963420 (Molecular Pharmacology Branch, DTP, NCI, 2024).
# Tested on: 494315-158-R-J1-PDC complex spheroid growth, percent test/control
# Experiment: Anticancer human tumor 494315-158-R-J1-PDC patient-derived soft tissue sarcoma cell line growth inhibition [Asc]
# Settings: for IC50: curve of first compound; for viability, T/C: stronger effect = lower value
# Experimental: Multicellular complex tumor spheroid response to apoptosis pathway targeting inhibitors Alrizomadlin, Pelcitoclax, and Dasminapant in combination with a variety of drugs and investigational agents in selected tumor cell lines
# The MDM2 inhibitor alrizomadlin, the Bcl-2/Bcl-xL inhibitor pelcitoclax, and the IAPs inhibitor dasminapant were evaluated both individually and in combination with standard of care and investigational anticancer small molecules within a complex spheroid model of solid tumors. . Complex spheroids include a stromal component modeled by human endothelial cells (HUVEC) and fibroblasts modeled by human mesenchymal stem cells (MSCs). The concentration ranges selected for each drug and investigational agent were based upon clinically achievable concentrations if the clinical Cmax of the agent was known.
# Compounds. The drugs and investigational agents: alrizomadlin (APG-115; NSC831270), pelcitoclax (APG-1252; NSC835773), dasminapant (APG-1387;NSC834197), TAK-243 (NSC785004), copanlisib (NSC809693), olaparib (NSC753686), talazoparib (NSC767125), cobimetinib (NSC 768068), eltanexor (KPT-8602, NSC 794443), abemaciclib (NSC 768073), sotorasib (NSC818433), adagrasib (NSC 831453), MRTX-1133 (NSC 836407), Iadademestat (ORY1001, NSC 806812), and RMC-4630 (NSC839698), were obtained from the NCI Developmental Therapeutics Program Chemical Repository. The FDA-approved anticancer drug set is available from the Developmental Therapeutics Program at https://dtp.cancer.gov/organization/dscb/obtaining/available plates.htm. […] The stock solutions were prepared in dimethyl sulfoxide (DMSO, Sigma-Aldrich, St. Louis, MO, cat. D2650) at 800-fold the tested concentration and stored at -70 degrees C prior to their use. All drugs and investigational agents were tested over a range starting from a high concentration at or near the clinical Cmax and decreasing in half-log increments. If the clinical Cmax for an agent had not been determined, the highest concentration tested was 10 microM.
# The patient-derived cancer (PDC) cell lines include five colon adenocarcinomas: 186277-243-T-J2-PDC, 616215-338-R-J1-PDC, 439559-082-T-J2-PDC, 463943-066-T-J2-PDC, and 519858-162-T-J1-PDC; three pancreatic carcinomas: 323965-272-R-J2-PDC, 521955-158-R6-J3-PDC, and 521955-158-R2-J5-PDC; two uterine sarcomas: 327498-152-R-J2-PDC and 993429-296-R-J1-PDC; two rhabdomyosarcomas: 755483-174-R-J1-PDC and 772245-204-R-J1-PDC; two soft tissue sarcomas: 126254-015-R-J1-PDC and 494315-158-R-J1-PDC; two malignant fibrous histiocytomas: 317291-083-R-J1-PDC and 596521-263-R-J1-PDC; two breast carcinomas: 171881-019-R-J1-PDC and 885512-296-R-J2-PDC; and one ovarian carcinoma: 6556581-035-R-J-PDC were obtained from the NCI PDMR, (https://pdmr.cancer.gov). The established cell lines HSSY-2 synovial sarcoma (RRID:CVCL 8719), SYO-1 synovial sarcoma (RRID:CVCL_7146), MPNST malignant peripheral neural sheath tumor were obtained from the Sloan Kettering Institute. The following established cell lines were purchased from the American Type Culture Collection (ATCC, Manassas, VA), Sor the received from the NCI repository:, PANC-1 pancreatic carcinoma (CRL-1469, RRID:CVCL_0480), OVCAR-5 ovarian carcinoma (RRID:CVCL_1628), OVCAR-8 ovarian carcinoma (RRID:CVCL_1629), , MCF-7 breast carcinoma (CRL-12584, RRID:CVCL_0031), MDA-MB-231 breast carcinoma (CRL-12532, RRID:CVCL_0062), NCI-H1876 small cell lung carcinoma (CRL-5902, RRID:CVCL_1503), NCI-H510A small cell lung carcinoma (HTB-184, RRID:CVCL_1565), NCI-H1417 (CRL-5869, RRID:CVCL_1469), and NCI-H196 small cell lung carcinoma (CRL-5823, RRID:CVCL_1509). Dr. Peter Houghton (Greehey Children's Cancer Research Institute, University of Texas Health Science Center, San Antonio, TX) provided Rh-18 rhabdomyosarcoma (RRID:CVCL_1659). Pooled donor human umbilical vein endothelial cells (HUVEC, Lonza, cat. CC-2519) and human mesenchymal stem cells (hMSC, Lonza, cat. PT-2501) were purchased from Lonza (Walkersville, MD).
# Cell Culture. […]
# 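Further: compound exposure lasted seven days after spheroids formed for three days.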
compound,measurement,setting,value
Cn1ncnc1[C@H]1c2n[nH]c(=O)c3cc(F)cc(c23)N[C@@H]1c1ccc(F)cc1 + CNC(C)C(=O)NC1CN(S(=O)(=O)c2cccc(S(=O)(=O)N3CCC4CCC(C(=O)NC(c5ccccc5)c5ccccc5)N4C(=O)C(NC(=O)C(C)NC)C3)c2)CCC2CCC(C(=O)NC(c3ccccc3)c3ccccc3)N2C1=O,IC50,second compound 0.01 µM,34.3 nM
same,IC50,second compound 0.0316 µM,3.18 nM
same,IC50,second compound 0.1 µM,0.316 nM
same,IC50,second compound 0.316 µM,< 0.316 nM
same,IC50,second compound 1 µM,< 0.316 nM
same,"viability, T/C","second compound 0.01 µM, first compound 0.000316 µM",65.8%
same,"viability, T/C","second compound 0.01 µM, first compound 0.001 µM",73%
same,"viability, T/C","second compound 0.01 µM, first compound 0.00316 µM",59.1%
same,"viability, T/C","second compound 0.01 µM, first compound 0.01 µM",53.5%
same,"viability, T/C","second compound 0.01 µM, first compound 0.0316 µM",49.6%
same,"viability, T/C","second compound 0.01 µM, first compound 0.1 µM",46.1%
same,"viability, T/C","second compound 0.0316 µM, first compound 0.000316 µM",56.5%
same,"viability, T/C","second compound 0.0316 µM, first compound 0.001 µM",59.9%
same,"viability, T/C","second compound 0.0316 µM, first compound 0.00316 µM",50.1%
same,"viability, T/C","second compound 0.0316 µM, first compound 0.01 µM",36.8%
same,"viability, T/C","second compound 0.0316 µM, first compound 0.0316 µM",38%
same,"viability, T/C","second compound 0.0316 µM, first compound 0.1 µM",34.1%
same,"viability, T/C","second compound 0.1 µM, first compound 0.000316 µM",44.1%
same,"viability, T/C","second compound 0.1 µM, first compound 0.001 µM",53.4%
same,"viability, T/C","second compound 0.1 µM, first compound 0.00316 µM",49.6%
same,"viability, T/C","second compound 0.1 µM, first compound 0.01 µM",32%
same,"viability, T/C","second compound 0.1 µM, first compound 0.0316 µM",33.4%
same,"viability, T/C","second compound 0.1 µM, first compound 0.1 µM",31.2%
same,"viability, T/C","second compound 0.316 µM, first compound 0.000316 µM",49.9%
same,"viability, T/C","second compound 0.316 µM, first compound 0.001 µM",38.8%
same,"viability, T/C","second compound 0.316 µM, first compound 0.00316 µM",33.7%
same,"viability, T/C","second compound 0.316 µM, first compound 0.01 µM",29.4%
same,"viability, T/C","second compound 0.316 µM, first compound 0.0316 µM",27.2%
same,"viability, T/C","second compound 0.316 µM, first compound 0.1 µM",26.4%
same,"viability, T/C","second compound 1 µM, first compound 0.000316 µM",41.1%
same,"viability, T/C","second compound 1 µM, first compound 0.001 µM",40.1%
same,"viability, T/C","second compound 1 µM, first compound 0.00316 µM",38.5%
same,"viability, T/C","second compound 1 µM, first compound 0.01 µM",26.9%
same,"viability, T/C","second compound 1 µM, first compound 0.0316 µM",29%
same,"viability, T/C","second compound 1 µM, first compound 0.1 µM",22.6%
